Test results reported in patent publication US20240025868A1, “PHENOTHIAZINE COMPOUNDS FOR THE TREATMENT OF ALZHEIMER'S DISEASE AND OTHER AGE-RELATED AND NEUROLOGICAL DISEASES” (Icahn School of Medicine at Mount Sinai, priority 2020, published 2024).
pIC50: −log10 of the molar value. Where “and” joins values, the source holds several entries; their conditions need not be identical. Identical values can stand only once. Counter-ions that a name gives are not always drawn. Like-named read-outs stand apart in the source and are kept apart here.

Legend:
SARS-CoV-2 = test: microbe, parasite or virus in culture; format: cell-based
[1] = Viability of Vero cells (CC50); format: cell-based; details: African green monkey; concentration that reduces viability of Vero cells
C. elegans = test: Lifespan in C. elegans; format: in vivo
TNF-alpha = test: Microglial TNF-alpha secretion, LPS stimulated; format: cell-based; details: for TNFa: percentage of TNFa vs LPS stimulated controls, Table 2; for TNF-a.: Table 3, microglial inflammation, presented for comparison
Procedure: The efficacy of these compounds to reduce toxicity are assessed, as reflected by age-dependent paralysis, in an Abeta transgenic C. elegans model of Alzheimer's Disease. Because microglial inflammation, especially the cytokine TNF-alpha, are implicated in driving the pathophysiology of Alzheimer's Disease, […], was also assessed.

microglial cells = test: MTT viability of microglial cells (microglial toxicity); format: cell-based
[2] = Plasma and brain concentrations after IV or oral administration in mice; format: in vivo; details: male C57BL/6 mice
Procedure: FIG. 2. Plasma and brain concentrations of TC084-110 over 8 h following a single IV injection (A) at 1 mg/kg or oral administration (B) at 10 mg/kg in male C57BL/6 mice. […] Plasma and brain concentrations at each time point represent the mean+/−SD from 3 mice.

[3] = system: Abeta transgenic C. elegans; test: Paralysis in Abeta transgenic C. elegans (Abeta toxicity); format: in vivo; details: for paralysis: Table 3, Abeta toxicity in C. elegans, one to six unexplained values per cell
[4] = system: mouse model of intracerebral hemorrhage; test: Mouse model of intracerebral hemorrhage, motor and cognitive function; format: in vivo; details: for cognitive function: alternation in a Y-maze; for cognitive function / motor function: compared to DMSO, normalized to pre-ICH function; for motor function: rotarod
Procedure: FIG. 1. […] Motor function was assessed using rotarod and cognitive was assessed by alternation in a Y-maze. All data were normalized to data pre-ICH function.
Motor function was assessed using rotarod and cognitive was assessed by alternation in a Y-maze. All data were normalized to data pre-ICH function.

[5] = system: mouse double-transgenic (A-beta/presenilin) model of AD; details: treatment between 14 and 15 months; Govindarajan et al. 2011; cited from earlier work
[6] = system: Abeta transgenic C. elegans; details: Zhang, Poplawski et al. 2009; cited from earlier work
Vero cells = test: Viability of Vero cells (CC50); format: cell-based; details: concentration that reduces viability of Vero cells
[7] = percentage of MTT viability compared to unstimulated DMSO control cells, Table 2
[8] = Table 3, net protective effects in C. elegans, class letter
[9] = Severe acute respiratory syndrome coronavirus 2, concentration that inhibits replication of SARS-CoV-2 in Vero cells by 50%, read-out: IC50
[10] = Table 3, microglial toxicity, presented for comparison
[11] = concentration that inhibits replication of SARS-CoV-2 in Vero cells by 50%, read-out: IC50

| Compound | lifespan in C. elegans (C. elegans) | Lifespan (C. elegans; Table 2, class letters I, D, N) | TNFa (TNF-alpha) [%] | MTT (microglial cells; [7]) [%] | also measured |
| --- | --- | --- | --- | --- | --- |
| CCC(CC)COC(=O)[C@H](C)N[P@](=O)(OC[C@H]1O[C@@](C#N)(c2ccc3c(N)ncnn23)[C@H](O)[C@@H]1O)Oc1ccccc1 [Remdesivir, reference compound] |  |  |  |  | pIC50 (SARS-CoV-2; Severe acute respiratory syndrome coronavirus 2, Vero): 5.92; CC50 [1]: > 20 µM |
| CC(=O)c1ccc2c(c1)N(C(C)=O)c1ccccc1S2 [TC84-13, 1,1′-(10H-phenothiazine-2,10-diyl)bis(ethan-1-one)] | increased lifespan | I | 95.36 | 154.03 |  |
| CC(=O)c1ccc2c(c1)N(C(C)=O)c1ccccc1[S+]2[O-] (centres unmarked) [TC84-20, 1,1′-(5-oxido-10H-phenothiazine-2,10-diyl)bis(ethan-1-one)] | increased lifespan | I | 95.41 | 158.76 |  |
| COc1ccc2c(c1)N(C(C)=O)c1ccccc1S2 [TC84-31, 1-(2-methoxy-10H-phenothiazin-10-yl)ethan-1-one] |  |  | 92.28 | 153.72 |  |
| CC(=O)N1c2ccccc2Sc2ccc(C(F)(F)F)cc21 [TC84-32, 1-(2-(trifluoromethyl)-10H-phenothiazin-10-yl)ethan-1-one] |  |  | 90.74 | 141.59 |  |
| COc1ccc2c(c1)N(C(C)=O)c1ccccc1[S+]2[O-] (centres unmarked) [TC84-37, 1-(2-methoxy-5-oxido-10H-phenothiazin-10-yl)ethan-1-one] |  |  | 90.49 | 140.38 |  |
| CC(=O)N1c2ccccc2[S+]([O-])c2ccc(C(F)(F)F)cc21 (centres unmarked) [TC84-38, 1-(5-oxido-2-(trifluoromethyl)-10H-phenothiazin-10-yl)ethan-1-one] | increased lifespan | I | 97.23 | 149.90 |  |
| CC(=O)N1c2ccccc2[S+]([O-])c2ccc(Cl)cc21 (centres unmarked) [TC84-39, 1-(2-chloro-5-oxido-10H-phenothiazin-10-yl)ethan-1-one] | increased lifespan | I | 90.88 | 134.67 |  |
| CN1CCCCC1CCN1c2ccccc2Sc2ccc(F)cc21 (centres unmarked) [TC84-110, 2-fluoro-10-(2-(1-methylpiperidin-2-yl)ethyl)-10H-phenothiazine] | increased lifespan | I | 58.49 | 91.99 | Lifespan (C. elegans; [8]): I; oral availability ([2]; oral administration at 10 mg/kg): orally available; brain/plasma ratio ([2]; single IV 1 mg/kg or oral 10 mg/kg, over 8 h): very high; Abeta toxicity [3]: reduced Abeta toxicity; microglial TNF-alpha secretion (TNF-alpha): significantly reduced; TNF-a. (TNF-alpha): 58.49%; SARS-CoV-2 replication (SARS-CoV-2): reduced SARS-CoV-2 replication; pIC50 (SARS-CoV-2; [9]): 5.92; MTT (microglial cells; [10]): 91.99%; CC50 [1]: 8.1 µM; protection to maintain open field behavior and cognitive impairments ([4]; administered after the lesion was produced): significantly protective; cognitive function [4]: preserve; off-target effects such as sedation ([4]; mouse): no discernable off-target effects; motor function [4]: preserve |
| Cc1cc2c(cc1C)N(CCCN(C)C)c1ccccc1S2 [TC84-124, 3-(2,3-dimethyl-10H-phenothiazin-10-yl)-N,N-dimethylpropan-1-amine] | increased lifespan | I | 56.73 | 82.48 | Lifespan (C. elegans; [8]): I; Abeta toxicity [3]: reduced Abeta toxicity; microglial TNF-alpha secretion (TNF-alpha): significantly reduced; TNF-a. (TNF-alpha): 56.73%; SARS-CoV-2 replication (SARS-CoV-2): reduced SARS-CoV-2 replication; pIC50 (SARS-CoV-2; [9]): 5.77; MTT (microglial cells; [10]): 82.48%; CC50 [1]: 6.5 µM |
| Cc1cc2c(cc1C)N(CCC1CCCCN1C)c1ccccc1S2 (centres unmarked) [TC84-125, 2,3-dimethyl-10-(2-(1-methylpiperidin-2-yl)ethyl)-10H-phenothiazine] | increased lifespan | I | 41.37 | 42.77 | Abeta toxicity [3]: reduced Abeta toxicity; microglial TNF-alpha secretion (TNF-alpha): significantly reduced |
| CN1CCCCC1CCN1c2ccccc2Sc2cc(C(F)(F)F)ccc21 (centres unmarked) [TC84-144, 10-(2-(1-methylpiperidin-2-yl)ethyl)-3-(trifluoromethyl)-10H-phenothiazine] | increased lifespan | I | 45.34 | 41.27 |  |
| CC(=O)c1ccc2c(c1)N(CCCN(C)C(C)=O)c1ccccc1S2 [TC84-161, N-(3-(2-acetyl-10H-phenothiazin-10-yl)propyl)-N-methylacetamide] | increased lifespan | I | 89.27 | 106.15 |  |
| CC(=O)N(C)CCCN1c2ccccc2Sc2ccc(C(F)(F)F)cc21 [TC84-162, N-methyl-N-(3-(2-(trifluoromethyl)-10H-phenothiazin-10-yl)propyl)acetamide] |  |  | 94.58 | 121.08 | Abeta toxicity [3]: reduced Abeta toxicity; microglial TNF-alpha secretion (TNF-alpha): significantly reduced |
| COc1ccc2c(c1)N(CCCN(C)C(C)=O)c1ccccc1S2 [TC84-163, N-(3-(2-methoxy-10H-phenothiazin-10-yl)propyl)-N-methylacetamide] | increased lifespan | I | 99.98 | 108.79 |  |
| Cc1ccc2c(c1)N(CCC1CCCCN1C)c1cc(C(F)(F)F)ccc1S2 (centres unmarked) [TC96-20, 2-methyl-10-(2-(1-methylpiperidin-2-yl)ethyl)-8-(trifluoromethyl)-10H-phenothiazine] |  |  | 49.67 | 51.90 | Abeta toxicity [3]: reduced Abeta toxicity; microglial TNF-alpha secretion (TNF-alpha): significantly reduced |
| COc1ccc2c(c1)N(CCC1CCCCN1C(C)=O)c1ccccc1S2 (centres unmarked) [TC96-32, 1-(2-(2-(2-methoxy-10H-phenothiazin-10-yl)ethyl)piperidin-1-yl)ethan-1-one] |  |  | 78.98 | 106.92 |  |
| CN(C)CCCN1c2ccccc2Sc2ccc(C(F)(F)F)cc21 [Triflupromazine Hydrochloride] |  |  |  |  | CC50 [1]: 7 µM |
| CCCC(=O)[O-].[Na+] [sodium butyrate] |  |  |  |  | A-beta plaques [5]: no changes in A-beta plaques; acetylation of H3K14, H4K5, and H4K16 [5]: reduced acetylation; cognitive impairments [5]: reversed cognitive impairments; Abeta toxicity in vivo in a C. elegans model of AD [6]: significantly reduces Abeta toxicity |
| Chlorpromazine [reference compound] |  |  |  |  | Lifespan (C. elegans; [8]): I; paralysis [3]: 0%; TNF-a. (TNF-alpha): 63.83%; pIC50 (SARS-CoV-2; [11]): 5.36; MTT (microglial cells; [10]): 79.38%; CC50 (Vero cells): 6.7 µM |
| Chlorprothixene [reference compound] |  |  |  |  | Lifespan (C. elegans; [8]): I 0.0493; paralysis [3]: 64.31% and 47.65%; TNF-a. (TNF-alpha): 69.84%; pIC50 (SARS-CoV-2; [11]): 6.00; MTT (microglial cells; [10]): 122.40%; CC50 (Vero cells): 3.5 µM; cognitive function [4]: preserve; motor function [4]: preserve |
